Test results as given in article PMC12140054, “Small glycomimetic antagonists of the cytomegalovirus glycoprotein UL141 prevent binding to TRAIL death receptor” (The Journal of Biological Chemistry, 2025).
Where two headings read alike, the source gives them in different places.

Tests used:
[1] = system: human foreskin fibroblasts HFF-BJ (ATCC CRL-2522 cells); test: MTT cytotoxicity / cell viability assay; format: cell-based; settings: 0.1 to 50 μM, 72 h
Description: Cell viability as visualized by fold change of formazan-positive cells normalized to the untreated control and DMSO. Viability reduced below 40% represents the cytotoxic zone, below the dotted line in each plot. The number of biological replicates is indicated.
Human foreskin fibroblasts (HFF), a type of primary fibroblast derived from neonatal foreskin tissue, were chosen for this bioassay due to their distinct advantages in studies involving HCMV. For instance, the HHF cells provide a relevant and effective platform due to their unique susceptibility to HCMV infection, ability to mimic human immune responses, and relevance to clinical scenarios. […] HFF cells were incubated with each compound at concentrations ranging from 0.1 to 50 μM and any possible cytotoxic effect was monitored for 72 h. Tested compounds were dissolved in dimethyl sulfoxide (DMSO). […] The cytotoxic effect (CTE) is represented here as the concentration that causes a reduction of more than 40% in the number of viable cells.
Cells were seeded in a 96-well plate at a density of 1 × 10^4 cells per well for the measurement of cytotoxicity of the compounds (without UVA irradiation). […] Cells after treatment were incubated for […]. Untreated cells were considered negative control, and DMSO-treated cells (at appropriate concentration) were considered vehicle control. The classical MTT assay (3-(4,5-dimethyl thiazolyl-2)-2,5-diphenyltetrazolium bromide) ([68]) was used to measure cellular metabolic activity as an indicator of cell viability, proliferation, and cytotoxicity. Briefly, 0.5 mg/ml MTT solution was dispensed in each well of the 96-well plate and incubated for 4 h. Afterward, the MTT solution was removed and 200 μl of 100% DMSO was added to each well and the plate was placed on a microplate shaker for 5 min to dissolve the formazan granules. The absorbance was measured at 550 nm using a spectrophotometer. DMSO and MTT were purchased from Thermo Fisher Scientific. The darker the solution, the greater the number of viable, metabolically active cells. All experimental compounds were measured using at least 2 to 3 replicates for each and the averaged values from three independent experiments (n = 3) are presented. Cell viability was visualized by fold change of formazan-positive cells normalized to the untreated control and DMSO. Viability reduced below 40% represents the cytotoxic zone. All evaluations were performed using GraphPad Prism 9.5.0 (GraphPad Software, LLC), if other software was not explicitly mentioned.

[2] = biological target: T1, HCMV UL141 (Human cytomegalovirus, UniProt Q6RJQ3); test: biochemical; format: binding; settings: for Rmax / koff / kon: UL141 immobilized, substance as analyte
T1 construct: we expressed and purified the full-length recombinant UL141 (amino acids 30–300); made in house
Method: (§1) To prepare HCMV UL141 for binding studies, biotinylation was performed using the BiotinTag Micro Biotinylation Kit (Sigma-Aldrich). Purified UL141 protein (50 μg in 50 μl) was mixed with 50 μl of BiotinTag reaction buffer provided in the kit. Sulfo-NHS-Biotin reagent was freshly prepared by dissolving the vial contents in 1 ml of sterile water. A calculated volume of the biotin reagent was added to achieve a 20:1 M excess of biotin to protein. The reaction mixture was incubated for 30 min at room temperature with gentle mixing to ensure efficient labeling. Following incubation, unreacted biotin was removed using the desalting column included in the kit. The biotinylated UL141 protein was eluted in 50 mM Hepes, pH 7.5, 150 mM NaCl. Biotin incorporation was verified using a colorimetric biotin quantification assay (e.g., HABA assay). The biotinylated protein was then quantified spectrophotometrically using a NanoDrop instrument and concentrated to the desired level for Biacore or ELISA binding studies. The biotinylated protein was stored at 4 °C for short-term use or −80 °C for long-term storage to maintain stability.
(§2) The sensor surface of an SA chip (Cytiva) was preconditioned with HBS-EP buffer (10 mM Hepes, 150 mM NaCl, 3 mM EDTA, 0.005% Tween-20) to stabilize the baseline and remove any loosely bound streptavidin. Before use, the buffer was filtered through a 0.2 μm polystyrene filter and degassed under vacuum for 10 min to eliminate air bubbles. Biotinylated HCMV UL141 was immobilized on the SA chip, maintaining biotinylation at 0.5 to 1.5 mol per mole of protein. Excess biotin was removed via gel filtration. UL141 was injected at 30 μl/min, achieving maximum immobilization (4000–6000 RU), followed by washing with running buffer. Residual unbound proteins were optionally removed with a 2 M NaCl pulse. To ensure optimal SPR signal detection, which depends on the analyte mass bound to the ligand, relatively high amounts of ligand were immobilized on the sensor chip to achieve a significant response signal upon binding of the small compound. […] Regeneration of the chip surface, when necessary, was performed using 5 mM NaOH. Control injections of zero concentrations and duplicate injections of selected concentrations were included to validate surface regeneration. […]

[3] = biological target: UL141; settings: cited from earlier work; for Kd: UL141 (ectodomain) in solution
[4] = system: A549 cells; test: Cytotoxicity on A549 cells (data not shown); format: cell-based
[5] = system: VERO-E6 cells; test: Cytotoxicity on VERO-E6 cells (data not shown); format: cell-based
[6] = biological target: T2, HCMV UL141 (Human cytomegalovirus, UniProt Q6RJQ3); test: biochemical; format: binding
T2 construct: we expressed and purified the full-length recombinant UL141 (amino acids 30–300); made in house
T2 sequence (Q6RJQ3 whole entry, looked up): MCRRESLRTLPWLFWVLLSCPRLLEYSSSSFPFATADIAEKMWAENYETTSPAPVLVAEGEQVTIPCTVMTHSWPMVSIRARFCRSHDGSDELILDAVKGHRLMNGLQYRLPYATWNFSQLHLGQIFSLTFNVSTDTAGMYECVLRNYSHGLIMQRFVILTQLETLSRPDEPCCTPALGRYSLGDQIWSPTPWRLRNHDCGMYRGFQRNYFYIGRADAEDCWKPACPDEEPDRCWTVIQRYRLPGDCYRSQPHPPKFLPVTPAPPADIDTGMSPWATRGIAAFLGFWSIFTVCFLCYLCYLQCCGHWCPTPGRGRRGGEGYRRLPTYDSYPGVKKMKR
Method: as §1, §2

[7] = biological target: TRAIL-R2-Fc (Homo sapiens) (UniProt O14763); test: SPR; settings: cited from earlier work
[8] = biological target: TRAIL-R2 (Homo sapiens) (UniProt O14763); test: SPR; settings: cited from earlier work
[9] = UL141 immobilized (ligand), substance in solution (analyte), 1:1 Langmuir model, 25 °C
[10] = TRAIL-R2-Fc immobilized, ref ([19])
[11] = TRAIL-R2-Fc immobilized, UL141 in solution, ref ([19])
[12] = 1:1 Langmuir model, listed as cmp 20
[13] = 1:1 Langmuir model, listed as cmp 15
[14] = UL141-Fc immobilized, TRAIL-R2 in solution, ref ([17])

## C[C@H](O)[C@H]1[C@@H](O)[C@@H](O)CN1Cc1ccc(I)cc1 [Compound 14, (2S,3R,4S)-2-((S)-1-hydroxyethyl)-1-(4-iodobenzyl)pyrrolidine-3,4-diol]
[1]
  cytotoxicity (in words): no cytotoxicity was detected
[2]; [9]
  Kd: 24 µM
[2]; binding to UL141, SPR
  Kd: 24 µM
[2]
  Rmax: 24
[2]; 1:1 Langmuir model
  koff: 0.153 s⁻¹
  kon: 6370 M⁻¹ s⁻¹
[2]; 1:1 Langmuir model, listed as cmp 14
  kon: (0.63 ± 0.002) × 10^4 M^−1s^−1

## TRAIL-R2-Fc: TRAIL-R2 recombinantly prepared as an Fc-fusion protein
[3]; [10]
  Kd: 5.96 nM
[3]; [11]
  koff: 7.21e-05 s⁻¹
  kon: 12100 M⁻¹ s⁻¹

## CCCCCCCCCCCCCCO[C@@H]1O[C@H](CO)[C@@H](O)[C@H](O)[C@H]1O [Compound 1]
[4]
  concentration at which cytotoxicity with apoptotic properties begins: ≥ 5 µg/mL
[5]
  concentration at which cytotoxicity with apoptotic properties begins: ≥ 5 µg/mL

## CC1C(O)C(O)CN1Cc1ccc(I)cc1 (stereo not shown) [Compound 20]
[1]
  cytotoxicity (in words): no cytotoxicity was detected
[2]; [9]
  Kd: 29.1 µM
[2]; binding to UL141, SPR
  Kd: 29 µM
[2]
  Rmax: 21
[2]; 1:1 Langmuir model
  koff: 0.0879 s⁻¹
  kon: 3020 M⁻¹ s⁻¹
[2]; [12]
  koff: (0.88 ± 0.015) × 10^−1 s^−1
  kon: (0.30 ± 0.007) × 10^4 M^−1s^−1

## CCCCCCCCCCCCN1C[C@H](O)[C@H](O)[C@@H]1CO [Compound 9]
[1]
  cytotoxicity (in words): unfavorable level of cytotoxicity
[4]
  concentration at which cytotoxicity with apoptotic properties begins: ≥ 5 µg/mL
[5]
  concentration at which cytotoxicity with apoptotic properties begins: ≥ 5 µg/mL

## CC(O)C1C(O)C(O)CN1Cc1ccccc1 (stereo not shown) [Compound 15]
[1]
  cytotoxicity (in words): no cytotoxicity was detected
[2]; [9]
  Kd: 200 µM
[2]; binding to UL141, SPR
  Kd: 199 µM
[2]
  Rmax: 27
[2]; 1:1 Langmuir model
  koff: 0.117 s⁻¹
  kon: 586 M⁻¹ s⁻¹
[2]; [13]
  koff: (1.17 ± 0.004) × 10^−1 s^−1
  kon: (0.06 ± 0.002) × 10^4 M^−1s^−1

## CCCCCCCCCCCCCCO[C@H]1O[C@H](CO)[C@@H](O)[C@H](O)[C@@H]1O [Compound 5]
[1]
  cytotoxicity (in words): unfavorable level of cytotoxicity
[4]
  concentration at which cytotoxicity with apoptotic properties begins: ≥ 5 µg/mL
[5]
  concentration at which cytotoxicity with apoptotic properties begins: ≥ 5 µg/mL

## CCCCCCCCCCCCCCO[C@@H]1O[C@H](CO)[C@H](O)[C@H](O)[C@H]1O [Compound 3]
[4]
  concentration at which cytotoxicity with apoptotic properties begins: ≥ 5 µg/mL
[5]
  concentration at which cytotoxicity with apoptotic properties begins: ≥ 5 µg/mL

## TRAIL-R2: recombinant human TRAIL death receptor 2 ectodomain (amino acids 58–184), positive control in SPR
[3]; [10]
  Kd: 5.96 nM
[3]; [14]
  koff: 0.00564 s⁻¹
  kon: 264000 M⁻¹ s⁻¹
[6]; UL141 immobilized, substance as analyte
  Rmax: 872
[6]; full-length UL141 and TRAIL-R2, SPR, read-out: affinity (KD)
  Kd: 5.99 nM

## UL141 ECD (from UniProt Q6RJQ3)
[7]
  Kd: 5.96 nM

## UL141-Fc (from UniProt Q6RJQ3)
[8]
  Kd: 21.4 nM

## CC(O)C1C(O)C(O)CN1Cc1ccc(I)cc1 (stereo not shown) [Compound 17]
[1]
  cytotoxicity (in words): no cytotoxicity was detected
[2]; [9]
  Kd: 20.3 µM
[2]
  Rmax: 20
[2]; 1:1 Langmuir model
  koff: 0.0508 s⁻¹
  kon: 2500 M⁻¹ s⁻¹
[2]; 1:1 Langmuir model, listed as cmp 17
  koff: (0.51 ± 0.001) × 10^−1 s^−1
